Test results as given in ChEMBL document CHEMBL1201862, “PubChem BioAssay data set” (2004).
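The compound was tested at five concentrations on cells cultured in 96-well plates, with a 48-hour exposure period. The concentration for 50% growth inhibition is given as GI50.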 Active and inactive are the calls of the source. Rule as the data show it: active = GI50 up to about 1.1 µM and inactive = higher.

Tests used:
Assay in all cases: NCI tumour cell line growth inhibition, 48 h
OVCAR-4 = tested on: OVCAR-4
TK-10 = tested on: TK-10
OVCAR-8 = tested on: OVCAR-8
IGROV-1 = tested on: IGROV-1
OVCAR-5 = tested on: OVCAR-5
HT-29 = tested on: HT-29
SNB-19 = tested on: SNB-19
UACC-257 = tested on: UACC-257
HCC 2998 = tested on: HCC 2998
SNB-75 = tested on: SNB-75
KM12 = tested on: KM12
NCI-H23 = tested on: NCI-H23
M14 = tested on: M14
HCT-116 = tested on: HCT-116
MDA-N = tested on: MDA-N
U-251 = tested on: U-251
BT-549 = tested on: BT-549
HOP-62 = tested on: HOP-62
PC-3 = tested on: PC-3
SN12C = tested on: SN12C
SK-MEL-2 = tested on: SK-MEL-2
HOP-92 = tested on: HOP-92
A549 = tested on: A549
COLO 205 = tested on: COLO 205
786-0 = tested on: 786-0
SK-OV-3 = tested on: SK-OV-3
NCI-H226 = tested on: NCI-H226
ACHN = tested on: ACHN
SF-539 = tested on: SF-539
Hs-578T = tested on: Hs-578T
SK-MEL-28 = tested on: SK-MEL-28
UACC-62 = tested on: UACC-62
LOX IMVI = tested on: LOX IMVI
NCI/ADR-RES = tested on: NCI/ADR-RES
NCI-H460 = tested on: NCI-H460
HCT-15 = tested on: HCT-15
K562 = tested on: K562
SK-MEL-5 = tested on: SK-MEL-5
OVCAR-3 = tested on: OVCAR-3
RXF 393 = tested on: RXF 393
SF-295 = tested on: SF-295
Malme-3M = tested on: Malme-3M
CAKI-1 = tested on: CAKI-1
MDA-MB-231 = tested on: MDA-MB-231
UO-31 = tested on: UO-31
EKVX = tested on: EKVX
MCF7 = tested on: MCF7
A498 = tested on: A498
SW-620 = tested on: SW-620
DU-145 = tested on: DU-145
SF-268 = tested on: SF-268
T47D = tested on: T47D
RPMI-8226 = tested on: RPMI-8226
CCRF-CEM = tested on: CCRF-CEM
HL-60 = tested on: HL-60
MDA-MB-435 = tested on: MDA-MB-435
SR = tested on: SR
MOLT-4 = tested on: MOLT-4
NCI-H522 = tested on: NCI-H522

**Q.** Which results are given for `C=C1CC[C@H]2C(=O)OC(c3ccoc3)C[C@]2(C)C/C=C\C=C/1C(=O)OC` (stereo partly specified)?
**A.** GI50 (OVCAR-4): > 25 µM (inactive); GI50 (TK-10): > 25 µM (inactive); GI50 (OVCAR-8): > 25 µM (inactive); GI50 (IGROV-1): > 25 µM (inactive); GI50 (OVCAR-5): > 25 µM (inactive); GI50 (HT-29): > 25 µM (inactive); GI50 (SNB-19): > 25 µM (inactive); GI50 (UACC-257): > 25 µM (inactive); GI50 (HCC 2998): > 25 µM (inactive); GI50 (SNB-75): 24 µM (inactive); GI50 (KM12): > 25 µM (inactive); GI50 (NCI-H23): 11.4 µM (inactive); GI50 (M14): > 25 µM (inactive); GI50 (HCT-116): > 25 µM (inactive); GI50 (MDA-N): > 25 µM (inactive); GI50 (U-251): > 25 µM (inactive); GI50 (BT-549): > 25 µM (inactive); GI50 (HOP-62): > 25 µM (inactive); GI50 (PC-3): > 25 µM (inactive); GI50 (SN12C): > 25 µM (inactive); GI50 (SK-MEL-2): > 25 µM (inactive); GI50 (HOP-92): > 25 µM (inactive); GI50 (A549): > 25 µM (inactive); GI50 (COLO 205): > 25 µM (inactive); GI50 (786-0): > 25 µM (inactive); GI50 (SK-OV-3): > 25 µM (inactive); GI50 (NCI-H226): > 25 µM (inactive); GI50 (ACHN): > 25 µM (inactive); GI50 (SF-539): > 25 µM (inactive); GI50 (Hs-578T): > 25 µM (inactive); GI50 (SK-MEL-28): > 25 µM (inactive); GI50 (UACC-62): > 25 µM (inactive); GI50 (LOX IMVI): > 25 µM (inactive); GI50 (NCI/ADR-RES): 13.2 µM (inactive); GI50 (NCI-H460): > 25 µM (inactive); GI50 (HCT-15): > 25 µM; GI50 (K562): > 25 µM (inactive); GI50 (SK-MEL-5): > 25 µM (inactive); GI50 (OVCAR-3): 13.9 µM (inactive); GI50 (RXF 393): > 25 µM (inactive); GI50 (SF-295): > 25 µM (inactive); GI50 (Malme-3M): > 25 µM (inactive); GI50 (CAKI-1): > 25 µM (inactive); GI50 (MDA-MB-231): > 25 µM (inactive); GI50 (UO-31): 13.6 µM (inactive); GI50 (EKVX): > 25 µM (inactive); GI50 (MCF7): > 25 µM (inactive); GI50 (A498): > 25 µM (inactive); GI50 (SW-620): > 25 µM (inactive)

**Q.** Which GI50 (OVCAR-4) does the source give for `N=C(N)NCCN1CCCCCc2ccccc21` here?
**A.** Its GI50 is > 10 µM (inactive).

**Q.** And the GI50 (TK-10)?
**A.** Its GI50 is > 10 µM (inactive).

**Q.** And the GI50 (OVCAR-8)?
**A.** The GI50 was > 10 µM (inactive).

**Q.** And the GI50 (DU-145)?
**A.** Its GI50 is > 10 µM (inactive).

**Q.** And the GI50 (IGROV-1)?
**A.** Its GI50 is > 10 µM (inactive).

**Q.** What about the GI50 (OVCAR-5) of the same compound?
**A.** Its GI50 is > 10 µM (inactive).

**Q.** And the GI50 (HT-29)?
**A.** The GI50 was > 10 µM (inactive).

**Q.** What about the GI50 (SNB-19) of the same compound?
**A.** The GI50 was > 10 µM (inactive).

**Q.** What about the GI50 (UACC-257) of the same compound?
**A.** Its GI50 is > 10 µM (inactive).

**Q.** What about the GI50 (HCC 2998) of the same compound?
**A.** Its GI50 is > 10 µM (inactive).

**Q.** What about the GI50 (SNB-75) of the same compound?
**A.** Its GI50 is 3.48 µM (inactive).

**Q.** What about the GI50 (KM12) of the same compound?
**A.** The GI50 was > 10 µM (inactive).

**Q.** What about the GI50 (SF-268) of the same compound?
**A.** Its GI50 is 3.27 µM (inactive).

**Q.** What about the GI50 (NCI-H23) of the same compound?
**A.** The GI50 was > 10 µM (inactive).

**Q.** And the GI50 (M14)?
**A.** Its GI50 is > 10 µM (inactive).

**Q.** What about the GI50 (HCT-116) of the same compound?
**A.** Its GI50 is > 10 µM (inactive).

**Q.** And the GI50 (U-251)?
**A.** The GI50 was > 10 µM (inactive).

**Q.** And the GI50 (BT-549)?
**A.** The GI50 was 7.08 µM (inactive).

**Q.** What about the GI50 (T47D) of the same compound?
**A.** Its GI50 is > 10 µM (inactive).

**Q.** And the GI50 (HOP-62)?
**A.** Its GI50 is > 10 µM (inactive).

**Q.** What about the GI50 (PC-3) of the same compound?
**A.** Its GI50 is 7.26 µM (inactive).

**Q.** What about the GI50 (SN12C) of the same compound?
**A.** The GI50 was > 10 µM (inactive).

**Q.** What about the GI50 (SK-MEL-2) of the same compound?
**A.** The GI50 was > 10 µM (inactive).

**Q.** And the GI50 (HOP-92)?
**A.** The GI50 was 5.24 µM (inactive).

**Q.** What about the GI50 (A549) of the same compound?
**A.** The GI50 was > 10 µM (inactive).

**Q.** And the GI50 (COLO 205)?
**A.** The GI50 was > 10 µM (inactive).

**Q.** What about the GI50 (786-0) of the same compound?
**A.** The GI50 was > 10 µM (inactive).

**Q.** What about the GI50 (SK-OV-3) of the same compound?
**A.** The GI50 was > 10 µM (inactive).

**Q.** And the GI50 (NCI-H226)?
**A.** Its GI50 is > 10 µM (inactive).

**Q.** And the GI50 (RPMI-8226)?
**A.** The GI50 was > 10 µM (inactive).

**Q.** What about the GI50 (ACHN) of the same compound?
**A.** Its GI50 is > 10 µM (inactive).

**Q.** What about the GI50 (SF-539) of the same compound?
**A.** The GI50 was > 10 µM (inactive).

**Q.** And the GI50 (CCRF-CEM)?
**A.** The GI50 was > 10 µM (inactive).

**Q.** And the GI50 (HL-60)?
**A.** Its GI50 is > 10 µM (inactive).

**Q.** What about the GI50 (Hs-578T) of the same compound?
**A.** Its GI50 is 8.05 µM (inactive).

**Q.** And the GI50 (SK-MEL-28)?
**A.** The GI50 was > 10 µM (inactive).

**Q.** What about the GI50 (UACC-62) of the same compound?
**A.** The GI50 was 9.25 µM (inactive).

**Q.** And the GI50 (LOX IMVI)?
**A.** Its GI50 is > 10 µM (inactive).

**Q.** What about the GI50 (NCI/ADR-RES) of the same compound?
**A.** Its GI50 is > 10 µM (inactive).

**Q.** And the GI50 (NCI-H460)?
**A.** Its GI50 is > 10 µM (inactive).

**Q.** And the GI50 (MDA-MB-435)?
**A.** Its GI50 is > 10 µM (inactive).

**Q.** And the GI50 (HCT-15)?
**A.** Its GI50 is greater than 10 µM.

**Q.** What about the GI50 (K562) of the same compound?
**A.** Its GI50 is > 10 µM (inactive).

**Q.** And the GI50 (SK-MEL-5)?
**A.** The GI50 was > 10 µM (inactive).

**Q.** And the GI50 (OVCAR-3)?
**A.** Its GI50 is > 10 µM (inactive).

**Q.** And the GI50 (RXF 393)?
**A.** The GI50 was > 10 µM (inactive).

**Q.** And the GI50 (SR)?
**A.** The GI50 was > 10 µM (inactive).

**Q.** And the GI50 (SF-295)?
**A.** Its GI50 is > 10 µM (inactive).

**Q.** And the GI50 (Malme-3M)?
**A.** Its GI50 is > 10 µM (inactive).

**Q.** What about the GI50 (CAKI-1) of the same compound?
**A.** The GI50 was > 10 µM (inactive).

**Q.** And the GI50 (MDA-MB-231)?
**A.** The GI50 was > 10 µM (inactive).

**Q.** And the GI50 (MOLT-4)?
**A.** The GI50 was > 10 µM (inactive).

**Q.** And the GI50 (EKVX)?
**A.** The GI50 was > 10 µM (inactive).

**Q.** And the GI50 (MCF7)?
**A.** The GI50 was > 10 µM (inactive).

**Q.** What about the GI50 (NCI-H522) of the same compound?
**A.** Its GI50 is > 10 µM (inactive).

**Q.** And the GI50 (A498)?
**A.** Its GI50 is > 10 µM (inactive).

**Q.** And the GI50 (SW-620)?
**A.** The GI50 was > 10 µM (inactive).
